This is an account of results in patent US5834461A, “Tricyclic benzazepine vasopressin antagonists” (American Cyanamid Company, priority 1997, dated 1998).

For assay [1], the target named is T1, human V2 vasopressin receptor (Homo sapiens, UniProt P30518).
T1 construct: expressed in transfected cells; host or cells: mouse fibroblast cell line LV-2
Briefly: Binding to Membranes of Mouse Fibroblast Cell Line (LV-2) Transfected with the cDNA Expressing the Human V2 Vasopressin Receptor. The settings on record: for IC50: LV-2 cells. On the procedure: Flasks of 175 ml capacity, containing attached cells grown to confluence, are cleared of culture medium by aspiration. The flasks containing the attached cells are rinsed with 2×5 ml of phosphate buffered saline (PBS) and the liquid aspirated off each time. Finally, 5 ml of an enzyme free dissociation Hank's based solution (Specialty Media, Inc., Lafayette, N.J.) is added and the flasks are left undisturbed for 2 min. The content of all flasks is poured into a centrifuge tube and the cells pelleted at 300×g for 15 min. The Hank's based solution is aspirated off and the cells homogenized with a polytron at setting #6 for 10 sec in 10.0 mM Tris.HCl buffer, pH 7.4 containing 0.25M sucrose and 1.0 mM EDTA. The homogenate is centrifuged at 1500×g for 10 min to remove ghost membranes. The supernatant fluid is centrifuged at 100,000×g for 60 min to pellet the receptor protein. Upon completion, the pellet is resuspended in a small volume of 50.0 mM Tris.HCl buffer, pH 7.4. The protein content is determined by the Lowry method and the receptor membranes are suspended in 50.0 mM Tris.HCl buffer containing 0.1 mM phenylmethylsulfonylfluoride (PMSF) and 0.2% bovine serum albumin (BSA) to give 2.5 mg receptor protein per ml of suspension.
For binding experiments, the following is added in μl volume to wells of a 96 well format of a microtiter plate: 100.0 μl of 100.0 mM Tris.HCl buffer containing 0.2% heat inactivated BSA, 10.0 mM MgCl2 and a mixture of protease inhibitors: leupeptin, 1.0 mg %; aprotinin, 1.0 mg %; 1,10-phenanthroline, 2.0 mg %; trypsin inhibitor, 10.0 mg % and 0.1 mM PMSF., 20.0 μl of [^3 H] Arginine^8, vasopressin (S.A. 75.0 Ci/mmole) at 0.8 nM and the reaction initiated by the addition of 80.0 μl of tissue membranes ([…]).
The plates are left undisturbed on the bench top for 120 min to reach equilibrium. Non specific binding is assessed in the presence of 1.0 μM of unlabeled ligand, added in 20 μl volume. For test compounds, these are solubilized in 50% dimethylsulfoxide (DMSO) and added in 20.0 μl volume to a final incubation volume of 200 μl. Upon completion of binding, the content of each well is filtered off, using a Brandel® cell Harvester (Gaithersburg, Md.). The radioactivity trapped on the filter disk by the ligand-receptor complex is assessed by liquid scintillation counting in a Packard LS Counter, with an efficiency of 65% for tritium.

Assay [2] concerns the target T2, vasopressin V1 receptor subtype in human platelet membranes (Homo sapiens, UniProt P37288).
T2 construct: tissue Hudson Valley Blood Services; host or cells: human blood platelets (frozen platelet rich plasma)
Kind of assay: Binding to Vasopressin V1 Receptor Subtype in Human Platelet Membranes. The settings on record: for IC50: human platelet V1 (*). On the procedure: (a) Platelet Membrane Preparation:
Frozen platelet rich plasma (PRP), received from the Hudson Valley Blood Services, are thawed to room temperature. (Platelet Source: Hudson Valley Blood Services, Westchester Medical Center, Valhalla, N.Y.). The tubes containing the PRP are centrifuged at 16,000×g for 10 min. at 4° C. and the supernatant fluid discarded. The platelets resuspended in an equal volume of 50.0 mM Tris.HCl, pH 7.5 containing 120 mM NaCl and 20.0 mM EDTA. The suspension is recentrifuged at 16,000×g for 10 min. This washing step is repeated one more time. The wash discarded and the lysed pellets homogenized in low ionic strength buffer of Tris.HCl, 5.0 mM, pH 7.5 containing 5.0 mM EDTA. The homogenate is centrifuged at 39,000×g for 10 min. The resulting pellet is resuspended in Tris.HCl buffer, 70.0 mM, pH 7.5 and recentrifuged at 39,000×g for 10 min. The final pellet is resuspended in 50.0 mM Tris.HCl buffer pH 7.4 containing 120 mM NaCl and 5.0 mM KCl to give 1.0-2.0 mg protein per ml of suspension.
(b) Binding to Vasopressin V1 Receptor Subtype in Human Platelet Membranes:
In wells of a 96 well format microtiter plate, add 100 μl of 50.0 mM Tris.HCl buffer containing 0.2% BSA and a mixture of protease inhibitors (aprotinin, leupeptin etc.). Then add 20 μl of [^3 H]Ligand (Manning or Arg^8 Vasopressin), to give final concentrations ranging from 0.01 to 10.0 nM. Initiate the binding by adding 80.0 μl of platelet suspension (approx. 100 μg protein). Mix all reagents by pipetting the mixture up and down a few times. Non specific binding is measured in the presence of 1.0 μM of unlabeled ligand (Manning or Arg^8 Vasopressin). Let the mixture stand undisturbed at room temperature for ninety (90) min. Upon this time, rapidly filter off the incubate under vacuum suction over GF/B filters, using a Brandel Harvester. The radioactivity caught on the filter disks is determined by the addition of liquid scintillant and counting in a liquid scintillator.

The subject of assay [3] is vasopressin V2. Briefly: Vasopressin V2 Antagonist Activity in Conscious Hydrated Rats (diuretic effect). The assay is classed as in vivo, normal Sprague-Dawley rats. The conditions noted are these: 10 mg/kg orally, AVP 0.4 μg/kg i.p. The method in brief:
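Conscious rats were dosed orally at 0.1–100 mg/kg, and AVP 0.4 μg/kg i.p. in peanut oil followed 1 h later. Urine volume, osmolality and Na/K/Cl were compared against AVP-treated controls, with non-AVP rats as water-loading controls.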

The target in assay [4] is T3, rat kidney medullary V2 receptors (Rattus norvegicus, UniProt Q00788).
T3 construct: Medullary tissues from rat kidneys are dissected out; from tissue; host or cells: rat kidney medulla membranes
T3 sequence (Q00788 whole entry): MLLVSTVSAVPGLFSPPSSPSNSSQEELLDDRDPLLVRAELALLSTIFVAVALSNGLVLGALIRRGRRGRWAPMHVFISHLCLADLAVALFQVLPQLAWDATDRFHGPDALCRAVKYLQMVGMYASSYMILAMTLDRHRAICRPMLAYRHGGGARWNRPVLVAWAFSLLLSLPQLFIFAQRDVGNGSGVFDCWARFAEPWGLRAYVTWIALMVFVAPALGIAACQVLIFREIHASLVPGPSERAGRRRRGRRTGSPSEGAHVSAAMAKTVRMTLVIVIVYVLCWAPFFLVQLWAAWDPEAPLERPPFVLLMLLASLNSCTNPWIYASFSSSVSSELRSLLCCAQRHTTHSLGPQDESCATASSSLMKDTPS
Briefly: Binding Assay to Rat Kidney Medullary V2 Receptors. The settings on record: rat kidney medullary V2. Summed up:
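Competition binding: [3H]AVP at 0.8 nM, test compounds from 50% DMSO, and membranes from rat kidney medulla, left 120 min on the bench. Filtration then liquid scintillation counting measured bound ligand; 1.0 μM unlabeled ligand set non-specific binding.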

Assay [5] deals with T4, oxytocin receptors (rat uterus membranes) (Rattus norvegicus, UniProt P70536).
T4 construct: The resulting pellet containing the oxytocin receptors is resuspended; from tissue; host or cells: uterus membranes of DES-treated female Sprague-Dawley rats
T4 sequence (P70536 1-388): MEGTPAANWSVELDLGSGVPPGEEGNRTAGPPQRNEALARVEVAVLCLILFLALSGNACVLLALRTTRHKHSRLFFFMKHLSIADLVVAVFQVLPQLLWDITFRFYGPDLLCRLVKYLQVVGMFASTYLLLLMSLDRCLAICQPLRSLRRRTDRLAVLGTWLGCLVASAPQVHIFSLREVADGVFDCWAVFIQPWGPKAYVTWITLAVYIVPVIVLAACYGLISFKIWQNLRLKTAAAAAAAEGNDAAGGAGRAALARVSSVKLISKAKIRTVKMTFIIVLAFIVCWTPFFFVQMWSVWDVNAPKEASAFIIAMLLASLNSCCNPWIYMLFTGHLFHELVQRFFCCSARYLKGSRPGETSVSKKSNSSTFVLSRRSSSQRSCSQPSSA
Kind of assay: Oxytocin Receptor Binding. The arrangement: species or system female Sprague-Dawley rats. On the procedure: Female Sprague-Dawley rats weighing approximately 200-250 g are injected intramuscularly (i.m.) with 0.3 mg/kg of body weight of diethylstilbestrol (DES). The rats are sacrificed 18 hours later under pentobarbital anesthesia. The uteri are dissected out, cleaned of fat and connective tissues and rinsed in 50 ml of normal saline. The tissue pooled from six rats is homogenized in 50 ml of […] Tris.HCl, containing 0.5 mM dithiothreitol and 1.0 mM EDTA, adjusted to pH 7.4, using a polytron at setting 6 with three passes of 10 sec each. The homogenate is passed through two (2) layers of cheesecloth and the filtrate centrifuged at 1000×g for 10 min. The clear supernatant is removed and recentrifuged at 165,000×g for 30 min. The resulting pellet containing the oxytocin receptors is resuspended in 50.0 mM Tris.HCl containing 5.0 mM MgCl2 at pH 7.4, to give a protein concentration of 2.5 mg/ml of tissue suspension. This preparation is used in subsequent binding assays with [^3 H]Oxytocin.
Binding of 3,5-[^3 H]Oxytocin ([^3 H]OT) to its receptors is done in microtiter plates using [^3 H]OT, at various concentrations, in an assay buffer of 50.0 mM Tris.HCl, pH 7.4 and containing 5.0 mM MgCl2, and a mixture of protease inhibitors: BSA, 0.1 mg; aprotinin, 1.0 mg; 1,10-phenanthroline, 2.0 mg; […], 10.0 mg; and PMSF, 0.3 mg per 100 ml of buffer solution. Non-specific binding is determined in the presence of 1.0 uM unlabeled OT. The binding reaction is terminated after 60 min., at 22° C., by rapid filtration through glass fiber filters using a Brandel® cell harvester (Biomedical Research and Development Laboratories, Inc., Gaithersburg, Md.). Competition experiments are conducted at equilibrium using 1.0 nM [^3 H]OT and varying the concentration of the displacing agents. The concentrations of agent displacing 50% of [^3 H]OT at its sites (IC50) are calculated by a computer assisted LUNDON-2 program (LUNDON SOFTWARE INC., Ohio, USA).

Assay [6] has as its target T1, human V2 vasopressin receptor. Kind of assay: Binding to Membranes of Mouse Fibroblast Cell Line (LV-2) Transfected with the cDNA Expressing the Human V2 Vasopressin Receptor. The settings on record: V2 column, printed with one *, read-out: V2, % at concentration in brackets.
Assay [7] deals with vasopressin V1. Kind of assay: Vasopressin V1 Antagonist Activity in Conscious Rats (vasopressin vasopressor response). Type of assay: in vivo, rat (spontaneously hypertensive rats). The settings on record: 10 mg/kg i.v. Summed up: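 Conscious rats had the ventral caudal tail artery cannulated into the lower abdominal aorta under local procaine anesthesia, plus a caudal vein cannula for intravenous dosing. Pulsatile blood pressure was recorded via a Statham P23Db transducer. Vasopressor responses to vasopressin injections were measured before and after compound dosing, with percent antagonism calculated relative to the pre-drug response taken as 100%.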

T2 sequence (P37288 whole entry): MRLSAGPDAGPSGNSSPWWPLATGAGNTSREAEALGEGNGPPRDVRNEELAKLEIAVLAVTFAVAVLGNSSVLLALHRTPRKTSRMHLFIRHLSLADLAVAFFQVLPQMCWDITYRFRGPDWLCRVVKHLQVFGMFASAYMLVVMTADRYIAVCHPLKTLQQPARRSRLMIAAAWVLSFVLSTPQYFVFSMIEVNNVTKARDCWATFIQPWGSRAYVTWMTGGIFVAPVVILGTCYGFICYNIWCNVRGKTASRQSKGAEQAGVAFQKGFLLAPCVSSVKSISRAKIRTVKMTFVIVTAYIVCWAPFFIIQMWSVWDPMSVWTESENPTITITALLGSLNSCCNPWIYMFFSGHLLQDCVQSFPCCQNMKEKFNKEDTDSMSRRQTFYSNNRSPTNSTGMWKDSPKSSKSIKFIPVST
T1 sequence (P30518 whole entry): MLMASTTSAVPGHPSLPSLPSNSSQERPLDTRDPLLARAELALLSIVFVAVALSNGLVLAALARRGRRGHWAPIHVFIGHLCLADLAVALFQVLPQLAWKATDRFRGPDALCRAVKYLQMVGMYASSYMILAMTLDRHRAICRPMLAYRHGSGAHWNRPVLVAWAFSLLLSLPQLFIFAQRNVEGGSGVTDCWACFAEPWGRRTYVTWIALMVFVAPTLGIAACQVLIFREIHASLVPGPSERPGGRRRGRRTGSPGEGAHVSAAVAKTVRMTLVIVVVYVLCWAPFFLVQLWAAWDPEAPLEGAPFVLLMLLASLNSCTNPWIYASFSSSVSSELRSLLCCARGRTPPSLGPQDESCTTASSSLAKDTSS

As to `Cc1ccccc1C(=O)Nc1ccc(C(=O)N2Cc3ccsc3Cc3ccccc32)cc1` [Example 456, N-[4-[(4,10-Dihydro-5H-thieno[3,2-c][1]benzazepin-5-yl)carbonyl]phenyl]-2-methylbenzamide], in assay [1], the IC50 was found to be 9 nM. In assay [2], the IC50 amounted to 36 nM. In assay [3], the Osmolality stood at 1209 mOsm/kg and the “Urine Volume” value turned out to be 4.8 ml/4 hrs.
Taken in the same sequence, the figures for `CCOC(=O)Cn1cc2c(n1)-c1ccccc1N(C(=O)c1ccc(NC(=O)c3ccc(Cl)cc3Cl)cc1)CC2` [Example 452, Ethyl 6-[4-[(2,4-dichlorobenzoyl)amino]benzoyl]-5,6-dihydropyrazolo[4,3-d][1]benzazepine-2(4H)-acetate] were 10 nM, 470 nM, 584 mOsm/kg and 7.8 ml/4 hrs.
With `Cc1ccccc1C(=O)Nc1ccc(C(=O)N2CCc3c[nH]nc3-c3ccccc32)cc1` [Example 585, N-[4-[(4.5-Dihydropyrazolo[4.3-d][1]benzaze-in-6(2H)-yl)carbonyl]phenyl]-2-methylbenzamide], the concentration for half-maximal inhibition (IC50) in assay [2] was 12 nM; in assay [4], 32 nM; in assay [5] (second part of Table V), 250 nM. The inhibition at 10 µM in assay [5] (dose 10 μM) was found to be 99%.
In the case of `Cc1ccccc1NC(=O)Nc1ccc(C(=O)N2Cc3ccccc3Cc3ccccc32)cc1` [Example 122, 6,11-Dihydro-5-[4-[[[(2-methylphenyl)amino]carbonyl]-amino]benzoyl]-5H-dibenz[b,e]azepine], the inhibition at 10 µM in assay [6] worked out at 92%; in assay [2] (1.5 h, 10 μM, human platelet (*), read-out: *V1, % at concentration in brackets), 95%.
In turn, `Cc1ccccc1C(=O)Nc1ccc(C(=O)N2Cc3sccc3Cc3ccccc32)cc1` [Example 458] gave an IC50 in assay [1] of 0.71 nM. Also, in assay [7], the “MAX % Inhibition” value was 77% and the “Time of max % inhibition” value came out at 180 min. In assay [2], this compound returned a half-inhibitory concentration (IC50) of 1.8 nM. For the same compound, in assay [3], the Osmolality is listed as 537 mOsm/kg and the “Urine Volume” value turned out to be 13.5 ml/4 hrs.
In the case of `O=C(O)Cn1cc2c(n1)-c1ccccc1N(C(=O)c1ccc(NC(=O)c3ccc(Cl)cc3Cl)cc1)CC2` [Example 451, 6-[4-[(2,4-Dichlorobenzoyl)amino]benzoyl]-5,6-dihydropyrazolo[4,3-d][1]benzazepine-2(4H)-acetic acid], the inhibition at 1 µM turned out to be 69% in assay [1] (1 μM, read-out: **V2, % at concentration in brackets) and 35% in assay [2] (1.5 h, 1 μM, human platelet (*), read-out: *V1, % at concentration in brackets). The Osmolality in assay [3] turned out to be 989 mOsm/kg. Besides, the “Urine Volume” value in assay [3] was found to be 5.3 ml/4 hrs.
In assay [1], `Cc1c(F)cccc1C(=O)Nc1ccc(C(=O)N2Cc3ccccc3Cc3ccccc32)c(Cl)c1` [Example 264, N-[4-[(6,11-Dihydro-5H-dibenz[b,e]azepin-5-yl)-carbonyl]-3-chlorophenyl]-2-methyl-3-fluorobenzamide] had a 50% inhibitory concentration (IC50) of 28 nM. Moreover, the half-inhibitory concentration (IC50) in assay [2] came to 980 nM. In addition, in assay [3], the Osmolality was 682 mOsm/kg and the “Urine Volume” value was found to be 12 ml/4 hrs.
